In the experiment the test system is ATXN3-HiBiT protein. Kind of experiment: ATXN3 HiBiT assay (Nano Glo HiBiT luminescence). Particulars: Kelly-ATXN3-HiBiT cells, luminescence read out 48 h after addition of the compound. The format is cell-based. The source says: To monitor ATXN3 protein levels by luminescence, a Kelly-ATXN3-HiBiT cell line with homozygous knock-in of HiBiT at the C-terminus of the endogenous ATXN3 gene was used (knock-in of the HiBiT-tag coding sequence SEQ ID NO. 14: 5′[…]3′ into exon 11 of ATXN3 -position 1114 of ATXN3 RefSeq NM_004993.6). Manipulations of the Kelly-ATXN3-HiBiT cell line that result in downregulation of the ATXN3-HiBiT protein (through modulation of ATXN3-HiBiT pre-mRNA splicing) can be followed by monitoring the luminescence signal of the HiBiT tag using the Nano Glo HiBiT Lytic Detection System (Promega, #N3050). Kelly-ATXN3-HiBiT cells were maintained in RPMI 1640 w/Glutamax (Gibco, #61870010), 10% FBS (Sigma Aldrich, #F8687), 1% Penicillin/Streptomycin (Gibco, #15140-122) at 37° C., 5% CO2. To assess HiBiT-luminescence signal upon compound treatment, 2000 Kelly-ATXN3-HiBiT cells were seeded per well in 384 plate format. Compounds were added 24 h after seeding. ATXN3-HiBiT-luminescence signal was read out 48 h after addition of the compound using the Nano Glo HiBiT Lytic Detection System (Promega, #N3050) according to the manufacturer's instructions. To control for cell viability, an identically prepared sister plate was read out with the CellTiter-Glo® 2.0 Assay (Promega, #G9243) according to the manufacturer's instructions. Fold changes of ATXN3-HiBiT-luminescence and of CellTiter-Glo viability signals were calculated relative to a DMSO control condition.
(In general: With HiBiT, luminescence reflects the tagged protein that the partner subunit can reach.)

Molecule “2-[(R)-2-amino-3-methoxy(1,1- ^2H2)propyl]-5-chloro-3-(1- propynyl)-7-thenylamino-1-oxa-4- azaindene [Compound 44]” displayed an EC50 of 0.01 to 100 nM. The result for `CC#Cc1c(C[C@@H](N)[C@H](C)F)oc2c(NCc3ccccc3F)cc(Cl)nc12` [Compound 13, 2-[(2R,3S)-2-amino-3-fluorobutyl]-5-chloro-7-{[(o-fluorophenyl)methyl]amino}-3-(1-propynyl)-1-oxa-4-azaindene] reads 501 to 5000 nM.

Regarding `CC#Cc1c(C[C@@H](N)[C@H](C)F)oc2c(NCc3c(F)cccc3F)cc(Cl)nc12` [Compound 14, 2-[(2R,3S)-2-amino-3-fluorobutyl]-5-chloro-7-{[(2,6-difluorophenyl)methyl]amino}-3-(1-propynyl)-1-oxa-4-azaindene], the EC50 was 10000 to 40000 nM. `CC#Cc1c(C[C@@H](N)CCOC(F)F)oc2c(NCc3cccs3)cc(Cl)nc12` [Compound 31, 2-[(S)-2-amino-4-difluoromethoxybutyl]-5-chloro-3-(1-propynyl)-7-thenylamino-1-oxa-4-azaindene] yielded an EC50 of 0.01 to 100 nM. With `CC#Cc1c(C[C@@H](N)CO)oc2c(NCc3cccs3)cc(Cl)nc12` [Compound 34, (R)-2-amino-3-[5-chloro-3-(1-propynyl)-7-thenylamino-1-oxa-4-aza-2-indenyl]-1-propanol] the figure was 0.01 to 100 nM; with `[2H]C([2H])([2H])OC[C@H](N)Cc1oc2c(NCc3cccs3)cc(Cl)nc2c1C#CC` [Compound 35, 2-[2-amino-3-(^2H3)methoxypropyl]-5-chloro-3-(1-propynyl)-7-thenylamino-1-oxa-4-azaindene], 0.01 to 100 nM; with `[2H]C([2H])([2H])OC[C@H](N)Cc1oc2c(NC([2H])([2H])c3cccs3)cc(Cl)nc2c1C#CC` [Compound 40, 2-[(R)-2-amino-3-(^2H3)methoxypropyl]-5-chloro-3-(1-propynyl)-7-{[(2-thienyl)(^2H2)methyl]amino}-1-oxa-4-azaindene], 0.01 to 100 nM. `[2H]C([2H])([2H])OCC[C@H](N)Cc1oc2c(NCc3cccs3)cc(Cl)nc2c1C#CC` [Compound 42, 2-[(S)-2-amino-4-(^2H3)methoxybutyl]-5-chloro-3-(1-propynyl)-7-thenylamino-1-oxa-4-azaindene] came in with an EC50 of 0.01 to 100 nM. With `[2H]C([2H])(c1oc2c(NCc3cccs3)cc(Cl)nc2c1C#CC)[C@H](C)N` [Compound 43, 2-[(S)-2-amino(1,1-^2H2)propyl]-5-chloro-3-(1-propynyl)-7-thenylamino-1-oxa-4-azaindene] the figure was 0.01 to 100 nM.

The molecule `[2H]C([2H])(c1oc2c(NCc3cccs3)cc(Cl)nc2c1C#CC)[C@@H](N)CF` [Compound 45, 2-[(R)-2-amino-3-fluoro(1,1- ^2H2)propyl]-5-chloro-3-(1-propynyl)-7-thenylamino-1-oxa-4-azaindene] came in with an EC50 of 0.01 to 100 nM. `[2H]C([2H])([2H])OC([2H])([2H])[C@H](N)Cc1oc2c(NCc3cccs3)cc(Cl)nc2c1C#CC` [Compound 47, 2-[(R)-2-amino-3-(^2H3)methoxy(3,3-^2H2)propyl]-5-chloro-3-(1-propynyl)-7-thenylamino-1-oxa-4-azaindene]: the concentration for a half-maximal effect (EC50) lay within 0.01 to 100 nM. Regarding `[2H]C([2H])(OC(F)F)[C@H](N)Cc1oc2c(NCc3cccs3)cc(Cl)nc2c1C#CC` [Compound 48, 2-[(R)-2-amino-3-difluoromethoxy(3,3-^2H2)propyl]-5-chloro-3-(1-propynyl)-7-thenylamino-1-oxa-4-azaindene], the EC50 lay within 0.01 to 100 nM.

The term EC50 denotes the midpoint of the concentration-response curve. Read a high EC50 as a need for much substance.
